# In patent EP1285920A1, “C10 Ester sustituted taxanes as antitumor agents” (Florida State University Research Foundation, Inc., priority 2001, dated 2003):
# Where two headings read alike, the source gives them in different places.
# Legend:
# HCT116 = assay: In Vitro cytotoxicity measured by the cell colony formation assay; type: cell-based, human; conditions: Homo sapiens, HCT-116; read-out: IN VITRO ID 50 HCT116
# Summary of the method: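 Four hundred cells per dish in McCoy's 5a medium with 10% FBS were allowed to attach for 5 h at 37 °C. They were then exposed to compound for 72 h at 37 °C, added as a 10× stock made fresh in medium. After HBSS rinsing and refeeding, colonies were counted after 7 days.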
# HCT116 carcinoma = conditions: for Partial Response / Complete Response / Mean Score / Stable Disease: iv; for Complete Response / Mean Score / Stable Disease: 1440 h; for Survivors / Toxic Deaths: number of 5 mice, i.v. qd x 1 at MTD, Day 60; for Survivors: doses as in E3; for Toxic Deaths: mg/kg: Taxol 36 (split doses), 0503 72.6, 0536 49, 0663 159, 0670 123, 0687 159, 0706 108, 0908 159, 0947 76.9, 0951 72.6, 0983 72.6, 0999 49, 1003 49, 1011 108
# Summary of the method: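 Mice bearing HCT116 tumours received a single i.v. maximum tolerated dose per compound, formulated in 5% ethanol, 5% Cremophor, 90% isotonic saline. Study ended on Day 60; complete response meant no palpable tumour at study end.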
# MX-1 carcinoma = conditions: for Partial Response / Complete Response / Mean Score / Stable Disease: iv; for Complete Response / Mean Score / Stable Disease: 1440 h; for Survivors / Toxic Deaths: number of 6 mice, i.v. qd x 1 at MTD, Day 60; for Survivors: doses as in E17; for Toxic Deaths: mg/kg: Taxol 36 (split dose), 0503 72.6, 0536 49, 0663 159, 0670 123, 0687 159, 0706 108, 0908 159, 0947 76.9, 0951 72.6, 0983 67.4, 0999 49, 1003 49, 1011 108
# Summary of the method: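 Mice dosed with a single i.v. bolus (qd x 1) at each compound's MTD, formulated in 5% ethanol, 5% Cremophor, 90% isotonic saline. Study ended Day 60; complete response = tumor not palpable at study end.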
# DU145 prostate carcinoma = conditions: for Toxic Deaths / Survivors: number of 5 mice, Day 91; for Toxic Deaths: i.v. qd x 1 at estimated MTD (Taxol 24 mg/kg as two split doses); for Survivors: i.v. qd x 1 at estimated MTD (Taxol 24 mg/kg split)
# Description: Dosing was initiated on Day 1. […] Treatment groups are detailed in Table 5.
# A2780 ovarian carcinoma = test system: A2780 ovarian carcinoma
# Protocol: Dosing was initiated on Day 1. […] Taxotere was given i.v. on a qd x 1 schedule at a dose of 70 mg/kg. […] The study was terminated on Day 60. Treatment groups are detailed in Table 7.
# A375 melanoma = conditions: for mean group weight losses: A375, i.v. qd x 1; for Toxic Deaths / Survivors: number of mice, i.v. qd x 1 at estimated MTD (Taxol 24 mg/kg, Taxotere 70 mg/kg), 6 mice/group (Taxotere 7); for Survivors: Day 60
# Protocol: Dosing was initiated on Day 1. […] Taxotere was given i.v. on a qd x 1 schedule at a dose of 70 mg/kg. […] The study was terminated on Day 60. Treatment groups are detailed in Table 9.
# [1] = test system: Panc-1 pancreatic carcinoma; conditions: for Mean Score: iv
# Protocol: (§1) The dosing volume was 0.3 ml per 20 g mouse.
# Female NCr-nude mice were implanted subcutaneously with 1 mm^3 Panc-1 pancreatic carcinoma fragments in the flank and sorted into treatment groups of six mice each. […] Dosing was initiated on Day 1. The antitumor compounds were given i.v. at an estimated maximum tolerated dose (MTD) appropriate for each agent on a qd x 1 schedule (single administration of compound). […] The vehicle was administered i.v. to control mice in Group 1 on the qd x 1 schedule.
# (§2) The mean days of survival is the number of days after which a neoplasm reached a size of 1.5 g and the animal was euthanized. A complete response is obtained if the tumor shrinks to a size smaller than its size on Day 1 of the study.
# VM46 colon carcinoma = conditions: for response rate: VM46, i.v. qd x 1 at estimated MTD; for Toxic Deaths / Complete Response / Partial Response / Stable Disease / Survivors: number of mice; for Complete Response / Partial Response / Stable Disease / Survivors: Day 64
# Protocol: Dosing was initiated on Day 1. […] Taxotere was given i.v. at a dose of 70 mg/kg on a qd x 1 schedule.
# [2] = test system: Panc-1 pancreatic carcinoma; assay: In vivo evaluation against Panc-1 human pancreatic carcinoma (Example 17); conditions: for Toxic Deaths / Complete Response / Partial Response / Stable Disease / Mean Score: i.v. qd x 1; for Complete Response / Partial Response / Stable Disease: Day 60; for Mean Score: tumor scoring system
# Protocol: as §1
# Female NCr-nude mice were implanted subcutaneously with 1 mm^3 Panc-1 pancreatic carcinoma fragments in the flank and sorted into treatment groups of six mice each. […] Dosing was initiated on Day 1. The antitumor compounds were given i.v. at an estimated maximum tolerated dose (MTD) appropriate for each agent on a qd x 1 schedule (single administration of compound). […] The vehicle was administered i.v. to control mice in Group 1 on the qd x 1 schedule. The study was terminated on Day 60.
# as §2
# [3] = A2780, i.v. qd x 1, five mice per group
# [4] = Panc-1 (Example 18), i.v. qd x 1, six mice per group
# [5] = number of mice, i.v. qd x 1, mg/kg: Taxol 24, 0854 46.6, 1011 107.6, 6 mice/group
# [6] = number of mice, i.v. qd x 1, mg/kg: Taxol 24, 0854 46.6, 1011 107.6, 6 mice/group, Day 63
# [7] = i.v. qd x 1, mg/kg: Taxol 24, 0499 77, 0503 72.6, 0670 123.1, 0706 107.6, 0838 72.6, 0854 46.6, 0983 67.4, Taxotere 70, 6 mice/group
# [8] = number of mice, mg/kg: Taxol 36, 0499 77, 0503 72.6, 0670 123.1, 0706 107.6, 0838 72.6, 0854 76.9, 6 mice/group
# [9] = mg/kg: Taxol 36, 0499 77, 0503 72.6, 0670 123.1, 0706 107.6, 0838 72.6, 0854 76.9, 6 mice/group
smiles,measurement,setting,value
CCCC(=O)O[C@H]1C(=O)[C@@]2(C)[C@H]([C@H](OC(=O)c3ccccc3)[C@]3(O)C[C@H](OC(=O)[C@H](O)[C@@H](NC(=O)OC(C)(C)C)c4ccsc4)C(C)=C1C3(C)C)[C@]1(OC(C)=O)CO[C@@H]1C[C@@H]2O [Compound 1011],IC50,HCT116,< 1 nM
same,Partial Response,HCT116 carcinoma,2
same,Complete Response,HCT116 carcinoma,3
same,Mean Score,HCT116 carcinoma,9.6 ± 0.2
same,Stable Disease,HCT116 carcinoma,0
same,Survivors,HCT116 carcinoma,5
same,Toxic Deaths,HCT116 carcinoma,0
same,Partial Response,MX-1 carcinoma,0
same,Complete Response,MX-1 carcinoma,6
same,Mean Score,MX-1 carcinoma,10 ± 0
same,Stable Disease,MX-1 carcinoma,0
same,Survivors,MX-1 carcinoma,6
same,Toxic Deaths,MX-1 carcinoma,0
same,mortality rate,"DU145 prostate carcinoma; DU145, i.v. qd x 1 at the administered dose, five animals",≥ 40%
same,Toxic Deaths,DU145 prostate carcinoma,3
same,Survivors,DU145 prostate carcinoma,0
same,maximal mean group weight loss,"A2780 ovarian carcinoma; A2780, i.v. qd x 1, Day 5",11.3%
same,Complete Response,A2780 ovarian carcinoma; [3],1
same,Toxic Deaths,A2780 ovarian carcinoma; [3],no toxic deaths
same,partial responses,A2780 ovarian carcinoma; [3],3
same,tolerability / toxicity,"A2780 ovarian carcinoma; mouse, in vivo, iv",well-tolerated
same,mean group weight losses,A375 melanoma,20 - 30%
same,Toxic Deaths,A375 melanoma,3
same,Survivors,A375 melanoma,0
same,partial responses,[1]; [4],three
same,toxic deaths / toxic lethalities,[1]; [4],three
same,overall response rate,"[1]; Panc-1 (Example 18), i.v. qd x 1 at estimated MTD",100%
same,Mean Score,[1],4 ± 1.8
same,Toxic Deaths,[1]; [5],3
same,Complete Response,[1]; [6],0
same,Partial Response,[1]; [6],3
same,Stable Disease,[1]; [6],0
same,Survivors,[1]; [6],3
CCC(=O)O[C@H]1C(=O)[C@@]2(C)[C@H]([C@H](OC(=O)c3ccccc3)[C@]3(O)C[C@H](OC(=O)[C@H](O)[C@@H](NC(=O)c4ccccc4)C4CC4)C(C)=C1C3(C)C)[C@]1(OC(C)=O)CO[C@@H]1C[C@@H]2O [Compound 0706],IC50,HCT116,< 1 nM
same,Partial Response,HCT116 carcinoma,4
same,Complete Response,HCT116 carcinoma,1
same,Mean Score,HCT116 carcinoma,9.2 ± 0.2
same,Stable Disease,HCT116 carcinoma,0
same,Survivors,HCT116 carcinoma,5
same,Toxic Deaths,HCT116 carcinoma,0
same,Partial Response,MX-1 carcinoma,0
same,Complete Response,MX-1 carcinoma,5
same,Mean Score,MX-1 carcinoma,8.3 ± 1.7
same,Stable Disease,MX-1 carcinoma,0
same,Survivors,MX-1 carcinoma,5
same,Toxic Deaths,MX-1 carcinoma,1
same,complete responses,"DU145 prostate carcinoma; DU145, i.v. qd x 1, five mice per group",2
same,total response rate,DU145 prostate carcinoma; iv,20-50%
same,Toxic Deaths,DU145 prostate carcinoma,0
same,Survivors,DU145 prostate carcinoma,3
same,Mean Score,"A2780 ovarian carcinoma; iv, 72.6 mg/kg",3 ± 0
same,Complete Response,"A2780 ovarian carcinoma; iv, 72.6 mg/kg, 1440 h",0
same,MDS (n),"A2780 ovarian carcinoma; iv, 72.6 mg/kg, 1440 h",37.0 ± 4.1 (5) days
same,Partial Respons,"A2780 ovarian carcinoma; iv, 72.6 mg/kg, 1440 h",0
same,Stable Disease,"A2780 ovarian carcinoma; iv, 72.6 mg/kg, 1440 h",0
same,Toxic Deaths,"A2780 ovarian carcinoma; number of mice, i.v. qd x 1 at estimated MTD (Taxol 24 mg/kg, Taxotere 70 mg/kg, 0983 72.6 mg/kg), 5 mice/group (Taxotere 6)",0
same,Survivors,"A2780 ovarian carcinoma; number of mice, i.v. qd x 1 at estimated MTD (Taxol 24 mg/kg, Taxotere 70 mg/kg, 0983 72.6 mg/kg), 5 mice/group (Taxotere 6), Day 60",0
same,Toxic Deaths,A375 melanoma,1
same,Survivors,A375 melanoma,0
same,response rate,VM46 colon carcinoma,56%
same,MDS (n),"VM46 colon carcinoma; mean days of survival until neoplasm reached 1.5 g, i.v. qd x 1, mg/kg: Taxol 24, 0499 77, 0503 72.6, 0670 123.1, 0706 107.6, 0838 72.6, 0854 46.6, 0983 67.4, Taxotere 70, 6 mice/group, terminated Day 64",48.6 ± 0.9 (3) days
same,Toxic Deaths,VM46 colon carcinoma; [7],0
same,Complete Response,VM46 colon carcinoma; [7],1
same,Partial Response,VM46 colon carcinoma; [7],2
same,Stable Disease,VM46 colon carcinoma; [7],0
same,Survivors,VM46 colon carcinoma; [7],3
same,Mean Score,"VM46 colon carcinoma; tumor scoring system, i.v. qd x 1, mg/kg: Taxol 24, 0499 77, 0503 72.6, 0670 123.1, 0706 107.6, 0838 72.6, 0854 46.6, 0983 67.4, Taxotere 70, 6 mice/group",6.2 ± 1.4
same,MDS,"[2]; Panc-1 (Example 17), i.v. qd x 1 (compounds estimated MTD; Taxol 36 mg/kg split), days until tumor 1.5 g, ended Day 60",47 to 56 days
same,Toxic Deaths,[2]; [8],0
same,Complete Response,[2]; [8],0
same,Partial Response,[2]; [8],3
same,Stable Disease,[2]; [8],2
same,Mean Score,[2]; [9],6.6 ± 1
CC(=O)O[C@@]12CO[C@@H]1C[C@H](O)[C@@]1(C)C(=O)[C@H](OC(=O)C3CC3)C3=C(C)[C@@H](OC(=O)[C@H](O)[C@@H](NC(=O)OC(C)(C)C)c4cccs4)C[C@@](O)([C@@H](OC(=O)c4ccccc4)[C@H]21)C3(C)C [Compound 0854],IC50,HCT116,< 1 nM
same,Toxic Deaths,DU145 prostate carcinoma,5
same,Survivors,DU145 prostate carcinoma,0
same,mean group weight losses,A375 melanoma,20 - 30%
same,Toxic Deaths,A375 melanoma,6
same,Survivors,A375 melanoma,0
same,response rate,VM46 colon carcinoma,16.7-40%
same,Mean Score,VM46 colon carcinoma; iv,4.7 ± 1.6
same,MDS (n),"VM46 colon carcinoma; iv, 1536 h",52.9 ± 6.6 (2) days
same,maximal mean weight loss,"VM46 colon carcinoma; mouse, in vivo, iv",under 12%
same,Toxic Deaths,VM46 colon carcinoma; [7],1
same,Complete Response,VM46 colon carcinoma; [7],0
same,Partial Response,VM46 colon carcinoma; [7],2
same,Stable Disease,VM46 colon carcinoma; [7],1
same,Survivors,VM46 colon carcinoma; [7],3
same,Mean Score,[1],0 ± 0
same,Toxic Deaths,[1]; [5],6
same,Complete Response,[1]; [6],0
same,Partial Response,[1]; [6],0
same,Stable Disease,[1]; [6],0
same,Toxic Deaths,"[2]; Panc-1 (Example 17), six mice per group",six
same,Toxic Deaths,[2]; [8],6
same,Complete Response,[2]; [8],0
same,Partial Response,[2]; [8],2
same,Stable Disease,[2]; [8],0
same,Mean Score,[2]; [9],0 ± 0
